Some results are limits rather than exact numbers.

Series [1] is described as follows: Determination of brain to plasma ratio in rat. It counts as in vivo. The conditions noted are these: brain and plasma, female Sprague Dawley rats, read-out: Brain/Plasma Ratio of compound in Rat. The procedure:
Brain to plasma ratios are estimated in female Sprague Dawley rats. The compound is dissolved in water or another appropriate vehicle. For determination of brain to plasma ratio the compound is administrated as a subcutaneous, or an intravenous bolus injection, or an intravenous infusion, or an oral administration. At a predetermined time point after the administration a blood sample is taken with cardiac puncture. The rat is terminated by cutting the heart open, and the brain is immediately retained. The blood samples are collected in heparinized tubes and centrifuged within 30 minutes, in order to separate the plasma from the blood cells. The plasma is transferred to 96-well plates and stored at −20° C. until analysis. The brains are divided in half, and each half is placed in a pre-tarred tube and stored at −20° C. until analysis. Prior to the analysis, the brain samples are thawed and 3 mL/g brain tissue of distilled water is added to the tubes. The brain samples are sonicated in an ice bath until the samples are homogenized. Both brain and plasma samples are precipitated with acetonitrile. After centrifugation, the supernatant is diluted with 0.2% formic acid. […] After reconstitution of the residuals the samples are ready for injection onto the HPLC column.

Series [2] deals with T1, human mGluR5d (Homo sapiens, UniProt P41594).
T1 construct: expressed in transfected cells; The cells are kept under Hygromycin B and Zeocin selection; The separate IP3 assay names GHEK cells stably expressing human mGluR5d
T1 sequence (P41594 21-942 isoform P41594-3 limits assumed): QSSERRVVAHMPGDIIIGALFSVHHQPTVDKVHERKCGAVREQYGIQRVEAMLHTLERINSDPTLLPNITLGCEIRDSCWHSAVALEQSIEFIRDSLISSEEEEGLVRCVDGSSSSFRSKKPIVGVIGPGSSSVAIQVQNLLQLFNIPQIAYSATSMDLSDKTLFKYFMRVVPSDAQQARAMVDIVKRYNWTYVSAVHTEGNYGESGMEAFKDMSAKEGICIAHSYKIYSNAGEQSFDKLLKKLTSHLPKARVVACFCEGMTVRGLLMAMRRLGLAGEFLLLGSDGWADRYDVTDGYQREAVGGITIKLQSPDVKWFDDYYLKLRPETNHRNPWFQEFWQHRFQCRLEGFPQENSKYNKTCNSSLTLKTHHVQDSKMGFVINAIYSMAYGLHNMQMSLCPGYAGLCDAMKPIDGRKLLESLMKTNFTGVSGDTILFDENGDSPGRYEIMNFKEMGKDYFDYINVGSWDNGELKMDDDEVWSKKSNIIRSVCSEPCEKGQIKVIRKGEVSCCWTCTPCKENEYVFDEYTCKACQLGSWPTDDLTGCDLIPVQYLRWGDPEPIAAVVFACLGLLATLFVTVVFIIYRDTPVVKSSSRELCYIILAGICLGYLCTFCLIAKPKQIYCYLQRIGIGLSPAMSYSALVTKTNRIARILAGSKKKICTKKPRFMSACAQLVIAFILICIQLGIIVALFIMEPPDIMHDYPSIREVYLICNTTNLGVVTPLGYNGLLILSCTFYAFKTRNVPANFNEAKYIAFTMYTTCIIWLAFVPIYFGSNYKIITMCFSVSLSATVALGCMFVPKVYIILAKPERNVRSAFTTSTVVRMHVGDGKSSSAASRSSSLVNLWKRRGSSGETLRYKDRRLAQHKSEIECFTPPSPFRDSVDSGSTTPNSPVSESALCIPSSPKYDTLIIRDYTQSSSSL
As to the kind of experiment: FLIPR assay, functional assessment of mGluR5 antagonism (intracellular calcium mobilization). It counts as cell-based. To be noted: cells expressing human mGluR5d; IC50 determination; read-out: FLIPR hmGluR5d. The source says: Functional Assessment of mGluR5 Antagonism in Cell Lines Expressing mGluR5D
The properties of the compounds of the invention can be analyzed using standard assays for pharmacological activity. Examples of glutamate receptor assays are well known in the art as described in for example Aramori et al., Neuron 8:757 (1992), Tanabe et al., Neuron 8:169 (1992), Miller et al., J. Neuroscience 15: 6103 (1995), Balazs, et al., J Neurochemistry 69:151 (1997). The methodology described in these publications is incorporated herein by reference. […]
Cells expressing human mGluR5d as described in WO97/05252 cultured in a mixture of high glucose DMEM with Glutamax (31966-021)(500 mL), 10% dialyzed fetal bovine serum (Hyclone #SH30079.03)(56 mL), 200 μg/mL Hygromycin B (Invitrogen 45-0430, 50 mg/mL)(2.2 mL), 200 μg/mL Zeocin (Invitrogen #R250-01; 100 mg/mL)(1.1 mL) are seeded at a density of 100,000 cells per well on collagen coated clear bottom 96-well plates with black sides and cells were allowed to adhere over night before experiments. […] The fluorescence signal is sampled 50 times at 1-second intervals followed by 3 samples at 5-second intervals immediately after each of the two additions. Responses are measured as the difference between the peak heights of the response to agonist, less the background fluorescence within the sample period. […]

As to `CNC(=O)c1ccc(-c2nnc(N3CCC[C@@H]3c3cc(-c4cccc(Cl)c4)on3)n2C)cc1` [Example 6.2, 4-[5-[(2R)-2-[5-(3-Chlorophenyl)1,2-oxazol-3-yl]pyrrolidin-1-yl]-4-methyl-1,2,4-triazo1-3-yl]-N-methyl-benzamide], the Kp in series [1] is less than 0.01. Besides, in series [2], the IC50 worked out at 16 nM.

Take `Cn1c(-c2ccc(C(N)=O)cc2)nnc1N1CCC[C@@H]1c1cc(-c2cccc(Cl)c2)on1` [Example 6.1, 4-[5-[(2R)-2-[5-(3-Chlorophenyl)1,2-oxazol-3-yl]pyrrolidin-1-yl]-4-methyl-1,2,4-triazol-3-yl]benzamide]: the Kp in series [1] is less than 0.01. Also, the IC50 in series [2] came to 11 nM.

These data come from patent US20090111811A1, “1,2,4-TRIAZOLE CARBOXYLIC ACID DERIVATIVES AS MODULATORS OF MGLUR5” (AstraZeneca AB, priority 2007, published 2009).
